In one assay the test system is Plasmodium falciparum. The experiment in a line: Antimalarial activity against chloroquine sensitive Plasmodium falciparum 3D7 infected in human RBC assessed as parasite growth inhibition incubated for 72 hrs by SYBR Green dye based fluorescence assay. Format: functional, organism-based. The following applies: 3D7, Erythrocyte.
The subject of the next assay is HepG2. Kind of assay: Cytotoxicity against human HepG2 cells assessed as cell growth inhibition incubated for 72 hrs by resazurin dye based fluorescence assay. Format: functional. The following applies: HepG2, 72 h.

In general, IC50 refers to the concentration at which inhibition is half-maximal. Regarding `Nc1cnc(Nc2cccc(NC(=O)Nc3ccccc3)c2)nc1Nc1ccc2cn[nH]c2c1`, the figures for the IC50 in the assay on Plasmodium falciparum and in the assay with HepG2 were 2.9 µM and greater than 25 µM, respectively.
For `O=C(Nc1ccc(F)cc1)Nc1ccc(Nc2nccc(Nc3ccc4cn[nH]c4c3)n2)cc1`, in that order: 0.79 µM and 3.5 µM.
Take `O=C(Nc1ccc(Nc2nccc(Nc3ccc4cn[nH]c4c3)n2)cc1)Nc1cccc(F)c1`: the IC50 with Plasmodium falciparum stood at 1 µM; with HepG2 it was 6.6 µM.
For `COc1ccc(NC(=O)Nc2ccccc2)cc1Nc1nccc(Nc2ccc3cn[nH]c3c2)n1` the same measures were 1.5 µM and 6.5 µM.
For `Cc1cccc(NC(=O)Nc2cccc(Nc3nccc(Nc4ccc5cn[nH]c5c4)n3)c2)c1` the same measures were 0.32 µM and 2.8 µM.
For `Cc1ccc(Nc2nccc(Nc3ccc4cn[nH]c4c3)n2)cc1NC(=O)Nc1ccccc1`, in that order: 1 µM and 8.9 µM.
As to `O[C@@H](c1cc(C(F)(F)F)nc2c(C(F)(F)F)cccc12)[C@H]1CCCCN1` [(S,R)-MEFLOQUINE], in the assay with HepG2, the IC50 was 11.5 µM.
With `O=C1NC(Cc2ccc(Nc3nccc(Nc4ccc5cn[nH]c5c4)n3)cc2)CO1` (configuration not stated), the IC50 was 7.1 µM in the assay with Plasmodium falciparum and 20 µM in the assay on HepG2.
For `Cc1cnc(Nc2cccc(NC(=O)Nc3ccccc3)c2)nc1Nc1ccc2cn[nH]c2c1` the same measures were 0.15 µM and 3.6 µM.
Consider `c1cc(Nc2ccc3cn[nH]c3c2)nc(Nc2ccc(Cn3cncn3)cc2)n1`, for which the IC50 is 7.2 µM in the assay with Plasmodium falciparum and 18 µM with HepG2.
For the compound `O=C(Nc1ccccc1)Nc1cccc(Nc2ncc([N+](=O)[O-])c(Nc3ccc4cn[nH]c4c3)n2)c1`, the IC50 in the assay on Plasmodium falciparum is 6.4 µM; in the assay on HepG2, greater than 25 µM.
As for `O=C(Nc1ccc(F)cc1)Nc1cccc(Nc2nccc(Nc3ccc4cn[nH]c4c3)n2)c1`, the IC50 was 0.4 µM with Plasmodium falciparum and 12 µM with HepG2.
For `O=C(Nc1ccccc1)Nc1cccc(Nc2nccc(Nc3ccc4[nH]ncc4c3)n2)c1` the same measures were 0.33 µM and 8.1 µM.
For `O=C(Nc1ccccc1)Nc1cccc(Nc2ncc(Cl)c(Nc3ccc4cn[nH]c4c3)n2)c1` the same measures were 2.5 µM and 3.5 µM.
For `O=C(Nc1ccccc1)Nc1ccc(Nc2nccc(Nc3ccc4cn[nH]c4c3)n2)cc1`, the IC50 was 0.92 µM in the assay with Plasmodium falciparum and 11 µM in the assay on HepG2.
`O=C(Nc1ccccc1)Nc1cccc(Nc2nccc(Nc3ccc4cn[nH]c4c3)n2)c1`: the IC50 with Plasmodium falciparum was determined as 0.47 µM; with HepG2, 8.2 µM.
For `O=C(Nc1ccccc1)Nc1cc(Nc2nccc(Nc3ccc4cn[nH]c4c3)n2)ccc1O`, in that order: 1.4 µM and 25 µM.
On to `CN1CCN(S(=O)(=O)c2ccc(Nc3nccc(Nc4ccc5nc[nH]c5c4)n3)cc2)CC1`, for which the IC50 in the assay on Plasmodium falciparum is 1.2 µM; in the assay on HepG2, greater than 25 µM.
As for `O=C(Nc1ccccc1)Nc1cccc(Nc2nccc(Nc3ccc4nc[nH]c4c3)n2)c1`, the IC50 in the assay with Plasmodium falciparum turned out to be 0.54 µM; in the assay on HepG2, 11 µM.
For `Cc1c2ccc(Nc3ccnc(Nc4cccc(NC(=O)Nc5ccccc5)c4)n3)cc2nn1C`, in that order: 0.17 µM and 2.4 µM.
For `c1cc(Nc2ccc3nc[nH]c3c2)nc(Nc2ccc(OCCN3CCOCC3)cc2)n1` the same measures were 1.2 µM and greater than 25 µM.
On to `Cc1ccc(NC(=O)Nc2cccc(Nc3nccc(Nc4ccc5cn[nH]c5c4)n3)c2)cc1`, for which the values for the IC50 with Plasmodium falciparum and with HepG2 were 0.72 µM and 11 µM, respectively.
For `c1cc(Nc2ccc3cn[nH]c3c2)nc(Nc2ccc(OCCN3CCOCC3)cc2)n1`, in that order: 2.1 µM and 15 µM.
For `O=S(=O)(c1ccc(Nc2nccc(Nc3ccc4nc[nH]c4c3)n2)cc1)N1CCOCC1` the same measures were 7.1 µM and greater than 25 µM.

The values above are taken from ChEMBL document CHEMBL5104230, “Preparation, biological evaluation and QSAR analysis of urea substituted 2,4-diamino-pyrimidine anti-malarials” (RSC Med Chem, 2022).
